Assay results published in PubChem BioAssay AID2060338 (Molecular Pharmacology Branch, DTP, NCI, 2025).
pIC50: −log10 of the molar value. Where “and” joins values, the source holds several entries; their conditions need not be identical. Identical values can stand only once.

System: 556581-035-R-J1-PDC spheroids with HUVEC/MSC, viability
Test: Anticancer human tumor 556581-035-R-J1-PDC patient-derived ovarian carcinoma cell line growth inhibition [IpAb]
Details: for viability, T/C: stronger effect = lower value
Text: Combinatorial screen of targeted agents with ipatasertib and abemaciclib in multi-cell type tumor spheroids
A high-throughput screen of multi-cell type tumor spheroids was designed to identify active combinations of targeted small molecules and ipatasertib or abemaciclib. Complex spheroids include a stromal component modeled by human endothelial cells (HUVEC) and fibroblasts modeled by human mesenchymal stem cells (MSCs). The concentration ranges selected for each drug and investigational agent were based upon clinically achievable concentrations if the clinical Cmax of the agent was known.
Compounds. The drugs and investigational agents: ipatasertib (NSC767898), abemaciclib(NSC768073), selumetinib (NSC741078), trametinib (758246), adavosertib (NSC754352), everolimus (NSC733504), sapanisertib (NSC764658), vemurafenib (NSC761431), venetoclax (NSC766270), copanlisib (NSC809693), apelisib (NSC765974), palbociblib (NSC758247), vemurafenib (NSC761431), dabrafenib (NSC764134), ravoxertinib (NSC781343), BMS-387032 (NSC767048), sotorasib (NSC818433), talazoparib (NSC767125) and afursertib (NSC778305), were obtained from the National Cancer Institute (NCI) Developmental Therapeutics Program Chemical Repository. The FDA-approved anticancer drug set is available from the NCI Developmental Therapeutics Program. […] The stock solutions were prepared in dimethyl sulfoxide (DMSO, Sigma-Aldrich, St. Louis, MO, cat. D2650) at 800-fold the tested concentration and stored at -70 degrees C prior to their use. All drugs and investigational agents were tested over a range starting from a high concentration at or near the clinical Cmax and decreasing in half-log increments. If the clinical Cmax for an agent had not been determined, the highest concentration tested was 10 microM.
NCI60 Cell Culture. NCI60 cell lines were obtained from the NCI Developmental Therapeutics Program Tumor Repository. For each lot of cells, the Repository performed Applied Biosystems AmpFLSTR Identifiler testing with PCR amplification to confirm consistency with the published Identifier STR profile for each cell line. Cells were kept in continuous culture for no more than 20 passages. The optimal seeding densities for each of the cell lines at each time point assessed were determined prior to performing the concentration response studies. Briefly, the NCI60 human tumor lines were grown as monolayers in RPMI 1640 medium supplemented with 10% FBS and 2 mmol/L L-glutamine.
An additional 9 lines were from the NCI60 cell line panel including MDA-MB-231 breast carcinoma, MDA-MB-468 breast carcinoma, MCF7 breast carcinoma, Hs578T breast carcinoma, MALME-3M melanoma, SK-MEL-2 melanoma, SK-OV-3 ovarian carcinoma, DU-145 prostate carcinoma, PC-3 prostate carcinoma, all cell lines along with major genetic alterations are listed on Table 2. Pooled donor human umbilical vein endothelial cells (HUVEC, Lonza, cat. CC-2519) and human mesenchymal stem cells (hMSC, Lonza, cat. PT-2501) were purchased from Lonza (Walkersville, MD).
PDMR cell lines were grown in complete medium (DC medium): Dulbecco's modified Eagle's medium (DMEM)/F12 supplemented with 5% fetal bovine serum (FBS), 2 mM L-glutamine, 100 U/mL penicillin and 100 µg/ml streptomycin, 0.4 µg/ml hydrocortisone, 10 ng/ml epidermal growth factor (EGF) recombinant human protein, 24 µg/mL adenine, and 0.1 mg/mL primocin. During culture from frozen stock vials, PDMR cells were cultured in the same medium containing 10 µM Y-27632 (see Table 3). The PDCs were cultured in complete DMEM/F12 media without 10 microM Y-27632 dihydrochloride for at least two passages prior to the screen. The pooled donor HUVEC and hMSC were cultured in endothelial cell growth medium 2 (PromoCell, Heidelberg, Germany, cat. C-22011) and mesenchymal stem cell growth medium 2 (PromoCell, cat. C-28009), respectively. For all experiments, HUVEC and hMSC were used at passages </=5.
[…]

[1] = curve of first compound, second compound 0.01 µM
[2] = curve of first compound, second compound 0.0316 µM
[3] = curve of first compound, second compound 0.1 µM
[4] = curve of first compound, second compound 0.316 µM
[5] = curve of first compound, second compound 1 µM
[6] = second compound 0.01 µM, first compound 0.0316 µM
[7] = second compound 0.01 µM, first compound 0.1 µM
[8] = second compound 0.01 µM, first compound 0.316 µM
[9] = second compound 0.01 µM, first compound 1 µM
[10] = second compound 0.01 µM, first compound 3.16 µM
[11] = second compound 0.01 µM, first compound 10 µM
[12] = second compound 0.0316 µM, first compound 0.0316 µM
[13] = second compound 0.0316 µM, first compound 0.1 µM
[14] = second compound 0.0316 µM, first compound 0.316 µM
[15] = second compound 0.0316 µM, first compound 1 µM
[16] = second compound 0.0316 µM, first compound 3.16 µM
[17] = second compound 0.0316 µM, first compound 10 µM
[18] = second compound 0.1 µM, first compound 0.0316 µM
[19] = second compound 0.1 µM, first compound 0.1 µM
[20] = second compound 0.1 µM, first compound 0.316 µM
[21] = second compound 0.1 µM, first compound 1 µM
[22] = second compound 0.1 µM, first compound 3.16 µM
[23] = second compound 0.1 µM, first compound 10 µM
[24] = second compound 0.316 µM, first compound 0.0316 µM
[25] = second compound 0.316 µM, first compound 0.1 µM
[26] = second compound 0.316 µM, first compound 0.316 µM
[27] = second compound 0.316 µM, first compound 1 µM
[28] = second compound 0.316 µM, first compound 3.16 µM
[29] = second compound 0.316 µM, first compound 10 µM
[30] = second compound 1 µM, first compound 0.0316 µM
[31] = second compound 1 µM, first compound 0.1 µM
[32] = second compound 1 µM, first compound 0.316 µM
[33] = second compound 1 µM, first compound 1 µM
[34] = second compound 1 µM, first compound 3.16 µM
[35] = second compound 1 µM, first compound 10 µM
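Also: spheroids exposed to compounds for 7 days before readout.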

## Cc1nc(NC(=O)N2CCCC2C(N)=O)sc1-c1ccnc(C(C)(C)C(F)(F)F)c1 (configuration not stated) + CCN1CCN(Cc2ccc(Nc3ncc(F)c(-c4cc(F)c5nc(C)n(C(C)C)c5c4)n3)nc2)CC1
[1]
  pIC50: 6.41
[2]
  pIC50: 6.56
[3]
  pIC50: 6.40
[4]
  pIC50: > 7.50
[5]
  pIC50: > 7.50
[6]
  viability, T/C: 87.3%
[7]
  viability, T/C: 65.6%
[8]
  viability, T/C: 47.3%
[9]
  viability, T/C: 39.6%
[10]
  viability, T/C: 33.2%
[11]
  viability, T/C: 10.3%
[12]
  viability, T/C: 70.4%
[13]
  viability, T/C: 58.8%
[14]
  viability, T/C: 42.9%
[15]
  viability, T/C: 42%
[16]
  viability, T/C: 27.5%
[17]
  viability, T/C: 9.58%
[18]
  viability, T/C: 67.8%
[19]
  viability, T/C: 62%
[20]
  viability, T/C: 52.7%
[21]
  viability, T/C: 39.5%
[22]
  viability, T/C: 25.2%
[23]
  viability, T/C: 7.2%
[24]
  viability, T/C: 46.7%
[25]
  viability, T/C: 47.9%
[26]
  viability, T/C: 40.8%
[27]
  viability, T/C: 36.7%
[28]
  viability, T/C: 31.2%
[29]
  viability, T/C: 11.3%
[30]
  viability, T/C: 48.9%
[31]
  viability, T/C: 37.9%
[32]
  viability, T/C: 39%
[33]
  viability, T/C: 30.2%
[34]
  viability, T/C: 20.2%
[35]
  viability, T/C: 9%

## CC(C)n1nc(-c2ccc3oc(N)nc3c2)c2c(N)ncnc21
Compound 0.000316 µM
  viability, T/C: 99.2% and 88.1%
Compound 0.001 µM
  viability, T/C: 62.2% and 89.2%
Compound 0.00316 µM
  viability, T/C: 70.7% and 66.5%
Compound 0.01 µM
  viability, T/C: 45.7% and 44.2%
Compound 0.0316 µM
  viability, T/C: 34.7% and 34%
Compound 0.1 µM
  viability, T/C: 25.1% and 23.4%
Curve of compound
  pIC50: 8.11

## C=CCn1c(=O)c2cnc(Nc3ccc(N4CCN(C)CC4)cc3)nc2n1-c1cccc(C(C)(C)O)n1 + CC(C)NCC(C(=O)N1CCN(c2ncnc3c2C(C)CC3O)CC1)c1ccc(Cl)cc1
[3]
  pIC50: 6.66
[4]
  pIC50: 6.73
[5]
  pIC50: 6.84
Curve of first compound, second compound 3.16 µM
  pIC50: 7.15
Curve of first compound, second compound 10 µM
  pIC50: > 7.50
[18]
  viability, T/C: 106%
[19]
  viability, T/C: 82.7%
[20]
  viability, T/C: 27.3%
[21]
  viability, T/C: 31.7%
[22]
  viability, T/C: 42.9%
[23]
  viability, T/C: 34.8%
[24]
  viability, T/C: 94.4%
[25]
  viability, T/C: 75.8%
[26]
  viability, T/C: 22.9%
[27]
  viability, T/C: 26.4%
[28]
  viability, T/C: 35.1%
[29]
  viability, T/C: 27.5%
[30]
  viability, T/C: 64.2%
[31]
  viability, T/C: 62.7%
[32]
  viability, T/C: 18.9%
[33]
  viability, T/C: 22%
[34]
  viability, T/C: 27.4%
[35]
  viability, T/C: 26.4%
Second compound 3.16 µM, first compound 0.0316 µM
  viability, T/C: 60.8%
Second compound 3.16 µM, first compound 0.1 µM
  viability, T/C: 45.5%
Second compound 3.16 µM, first compound 0.316 µM
  viability, T/C: 17.2%
Second compound 3.16 µM, first compound 1 µM
  viability, T/C: 13.2%
Second compound 3.16 µM, first compound 3.16 µM
  viability, T/C: 23.2%
Second compound 3.16 µM, first compound 10 µM
  viability, T/C: 22.8%
Second compound 10 µM, first compound 0.0316 µM
  viability, T/C: 43.3%
Second compound 10 µM, first compound 0.1 µM
  viability, T/C: 35.9%
Second compound 10 µM, first compound 0.316 µM
  viability, T/C: 14.8%
Second compound 10 µM, first compound 1 µM
  viability, T/C: 11.6%
Second compound 10 µM, first compound 3.16 µM
  viability, T/C: 18.2%
Second compound 10 µM, first compound 10 µM
  viability, T/C: 19.7%

## C=CCn1c(=O)c2cnc(Nc3ccc(N4CCN(C)CC4)cc3)nc2n1-c1cccc(C(C)(C)O)n1 + CCN1CCN(Cc2ccc(Nc3ncc(F)c(-c4cc(F)c5nc(C)n(C(C)C)c5c4)n3)nc2)CC1
[1]
  pIC50: 6.63
[2]
  pIC50: 6.65
[3]
  pIC50: 6.68
[4]
  pIC50: 6.75
[5]
  pIC50: 7.43
[6]
  viability, T/C: 96.9%
[7]
  viability, T/C: 81.9%
[8]
  viability, T/C: 32.1%
[9]
  viability, T/C: 35.9%
[10]
  viability, T/C: 42%
[11]
  viability, T/C: 44.4%
[12]
  viability, T/C: 102%
[13]
  viability, T/C: 78.4%
[14]
  viability, T/C: 27.8%
[15]
  viability, T/C: 37.2%
[16]
  viability, T/C: 51.3%
[17]
  viability, T/C: 36.3%
[18]
  viability, T/C: 83.3%
[19]
  viability, T/C: 66.3%
[20]
  viability, T/C: 31.8%
[21]
  viability, T/C: 40.9%
[22]
  viability, T/C: 50.6%
[23]
  viability, T/C: 41.4%
[24]
  viability, T/C: 91.4%
[25]
  viability, T/C: 60.7%
[26]
  viability, T/C: 29.2%
[27]
  viability, T/C: 38.1%
[28]
  viability, T/C: 48.1%
[29]
  viability, T/C: 40.7%
[30]
  viability, T/C: 54.5%
[31]
  viability, T/C: 41.1%
[32]
  viability, T/C: 32.9%
[33]
  viability, T/C: 31.5%
[34]
  viability, T/C: 42.5%
[35]
  viability, T/C: 13.9%
